Article PMC9435431, “Novel chemical entities inhibiting Mycobacterium tuberculosis growth identified by phenotypic high-throughput screening” (Scientific Reports, 2022)
≈ marks a conversion by molar mass, not a printed value. Entries after “also recorded” stand apart in the source; their conditions may differ. Like-named read-outs stand apart in the source and are kept apart here.

How the values were obtained:
[1] = in vitro; format: in vitro ADME, human; settings: human, microsomes
Protocol: (§1) Compounds (0.5 µM) were incubated with 0.25 mg/mL liver microsomal proteins at pH 7.4 at 37 °C. Reactions were initiated with […] and samples taken at 0, 5, 10, 15, 20 and 30 min. The reaction was stopped by addition of 95% ACN/5% MeOH containing an internal standard. Samples were combined in compound groups of six pre-sorted by mono molecular weight and analyzed by LC/MS/MS. The peak area ratios (analyte peak area/IS peak area) were converted to % remaining using the area ratio at time 0 as 100%. The. half-life (T ½) and intrinsic clearance (mCLint) were calculated.

[2] = mouse, in vivo
[3] = in vivo; settings: female, Balb/c, mouse; for AUC: po, 30 mg/kg
[4] = Critical aggregation concentration; format: physicochemical
[5] = in vitro; settings: PAMPA
[6] = in vitro; format: in vitro ADME; settings: mouse, microsomes, pH 7.4
Protocol: as §1

[7] = test system: wild-type M. tuberculosis; assay: microbe, parasite or virus in culture; format: cell-based, Mycobacterium tuberculosis; settings: for MIC: Mycobacterium tuberculosis, read-out: MIC

Structure (SMILES)	CLint scaled at 0.5 µM ([1]; pH 7.4, human Clint)	CLint scaled at 0.5 µM ([1]; pH 7.4, in vitro human unbound microsomal clearance Clint,u)	Oral AUC ([2]; female, Balb/c, po, 30 mg/kg)	AUC [3]	critical aggregation concentration [4]	Papp [5]	CLint scaled at 0.5 µM [6]	MIC ([7]; 120 h)	MIC [7]	absorption (in words) [2]	half-life ([3]; iv)	anti-tubercular activity (in words) [7]
O=C(NCCc1cc(Br)c(O)c(Br)c1)C1(c2ccccc2)CCC1 [PCB-2, N-(3,5-dibromo-4-hydroxyphenethyl)-1-phenylcyclobutane-1-carboxamide]	427 mL/min/kg	593 mL/min/kg	58 ng·h/mL	58 ng·h/mL	3.3 µM	87 ×10⁻⁶ cm/s	1920 mL/min/kg	3.4 ± 0.6 µM (≈ 1.54 µg/mL)	3.4 µM (≈ 1.54 µg/mL)	–	–	–
O=C(NCCc1cc(Br)c(O)c(Br)c1)C1(c2ccc(F)cc2)CCC1 [PCB-31, N-(3,5-dibromo-4-hydroxyphenethyl)-1-(4-fluorophenyl)cyclobutane-1-carboxamide]	128 mL/min/kg	–	–	259 ng·h/mL	–	–	527 mL/min/kg	0.94 ± 0.23 µM (≈ 0.443 µg/mL)	–	solubility-limited absorption	12 min	good anti-TB activity; also recorded: sub-micromolar
